Entries after “also recorded” stand apart in the source; their conditions may differ.
Experiments:
[1] = tested on: human skin fibroblasts; experiment: Fibroblast proliferation; format: cell-based; conditions: relative to minoxidil
Protocol: Cultures were seeded at a density of 100,000 cells per 35 mm-dish and allowed to attach and proliferate in the presence of 20% calf serum. Drug-treated cultures received 1 mM minoxidil or its hydroxy derivative on day 1 after seeding.

[2] = tested on: Collagen Synthesis in Human Skin Fibroblasts; experiment: Collagen synthesis in human skin fibroblasts; format: cell-based; conditions: 1 mM, 72 hr; mean ± SD of duplicate analysis of two cultures (Table VII)
Protocol: (§1) Culture of human skin fibroblasts derived from an apparently normal adult were grown to confluent densities in Dulbecco's modified Eagle's medium supplemented with 10% (v/v) fetal calf serum. Thereafter, the medium was replaced with medium supplemented with 0.5% dialyzed fetal calf serum. The cultures were treated for 72 hr with 1 mM minoxidil, 3'- hydroxyminoxidil,or 4'-hydroxyminoxidil (Upjohn) dissolved in aqueous medium. In some experiments, minoxodil was dissolved in 95% (v/v) ethanol; […]. Cultures treated with ethanol only served as the control.
During the last 6 hr of treatment, cultures were labeled with 20 μCi of L-[2,3-^3 H]proline in 1 ml of medium supplemented with 100 μM ascorbic acid. The amount of proline radioactivity incorporated into collagen in the medium and cells combined was measured after digestion with a bacterial collagenase, essentially as described previously (Freiberger et al, J. Invest. Dermatol. 75:425 (1980)).

[3] = tested on: lysyl hydroxylase; experiment: Lysyl hydroxylase activity in fibroblasts treated with minoxidil and its hydroxy derivatives (Example 3); format: cell-based, human; conditions: for Fibroblast Lysyl Hydroxylase Activity: 48 hr
Protocol: Culture of human skin fibroblasts derived from an apparently normal adult were grown to confluent densities in Dulbecco's modified Eagle's medium supplemented with 10% (v/v) fetal calf serum. Thereafter, the medium was replaced with medium supplemented with 0.5% dialyzed fetal calf serum. […] In some experiments, minoxodil was dissolved in 95% (v/v) ethanol; the final concentration of minoxidil was 0.3 mM and that of ethanol was 0.3%. Cultures treated with ethanol only served as the control.
(§2) During the last 3 hr of treatment, cultures received 100 μM ascorbic acid. The enzyme activities in extracts of treated cells were measured by tritium-release assays described previously (Murad and Pinnell, J. Biol. Chem. 262:11,973 (1987)).

[4] = tested on: prolyl hydroxylase; experiment: Prolyl hydroxylase activity in fibroblasts treated with minoxidil and its hydroxy derivatives (Example 3); format: cell-based, human; conditions: for prolyl hydroxylase activity (in words) / Prolyl Hydroxylase Activity: 1 mM; for prolyl hydroxylase activity (in words): 72 hr
Protocol: Culture of human skin fibroblasts derived from an apparently normal adult were grown to confluent densities in Dulbecco's modified Eagle's medium supplemented with 10% (v/v) fetal calf serum. Thereafter, the medium was replaced with medium supplemented with 0.5% dialyzed fetal calf serum. The cultures were treated for 72 hr with 1 mM minoxidil, 3'- hydroxyminoxidil,or 4'-hydroxyminoxidil (Upjohn) dissolved in aqueous medium. In some experiments, minoxodil was dissolved in 95% (v/v) ethanol; the final concentration of minoxidil was 0.3 mM and that of ethanol was 0.3%. Cultures treated with ethanol only served as the control.
as §2

[5] = tested on: Prolyl Hydroxylations in Human Skin Fibroblasts; experiment: Hydroxylation of proline residues in type I procollagen (Hyp/Pro); format: cell-based; conditions: 1 mM; for Hyp/Pro: 72 hr; for activity at 1000 µM: Homo sapiens, Skin fibroblast, 72 hr (Table V), read-out: ratio of hydroxyproline to proline, % control value
Protocol: Culture of human skin fibroblasts derived from an apparently normal adult were grown to confluent densities in Dulbecco's modified Eagle's medium supplemented with 10% (v/v) fetal calf serum. Thereafter, the medium was replaced with medium supplemented with 0.5% dialyzed fetal calf serum. […] In some experiments, minoxodil was dissolved in 95% (v/v) ethanol; […]. Cultures treated with ethanol only served as the control.
(§3) During the last 6 hr of treatment, cultures were labeled with 50 μCi of L-[2,3-^3 H]proline (35 Ci/mmol) and 50 μCi of L[U-^14 C]lysine ([…]) in 4 ml of lysine-free medium supplemented with 100 μM ascorbic acid. At the end of the incubation period, the medium was removed and mixed with 1 mM each of EDTA, N-ethylmaleimide, and phenylmethylsulfonylfluoride, and the collagenous proteins were precipitated with 30% (NH4)2 SO4. The cell layer was scraped and extracted with 0.5 M acetic acid containing the protease inhibitors as above. The cell extract was neutralized, and the collagenous proteins were precipitated as above. The (NH4)2 SO4 precipitate from the medium and cell layer was separately dissolved in 0.1% SDS/10 mM Tris-HCl (pH 6.8), reduced with dithiothreitol, and analyzed by electrophoresis on 4% SDS-polyacrylamide gels. The bands corresponding to the proαl(I) and proα2(I) chains from the two fractions were pooled and hydrolyzed with 6 M HCl for 24 hr at 110° C. Proline, hydroxyproline, lysine, and hydroxylysine in the hydrolysate were separated by HPLC (Takimitsa et al, J. Dermatol. 16:37 (1989)), and their radioactivity was determined in a Beckman liquid scintillation counter. To isolate type I procollagen the precipitate from the medium and cell layer was separately dissolved in 25 mM Tris-HCl, pH 7.5, containing 2 M urea and 1 mM each of EDTA, N-ethylmaleimide, and phenylmethylsulfonylfluoride, then chromatographed on a DEAE-cellulose column (Freiberger et al, J. Invest. Dermatol. 75:425 (1980)). The procollagen isolated from the two fractions was pooled, hydrolyzed, and analyzed as above.

[6] = tested on: Lysyl Hydroxylations in Human Skin Fibroblasts; experiment: Hydroxylation of lysine residues in type I procollagen (Hyl/Lys); format: cell-based; conditions: 1 mM; for Hyl/Lys: 72 hr; for activity at 1000 µM: Homo sapiens, Skin fibroblast, 72 hr (Table V), read-out: ratio of hydroxylysine to lysine, percentage of control value
Protocol: as §1, §3

[7] = tested on: non-proliferating fibroblasts; experiment: Cytotoxicity to non-proliferating fibroblasts (cell number per dish); format: cell-based; conditions: 5 mM, 72 hr
Description: Certain aspects of the present invention are described in greater detail in the non-limiting Examples that follow. (See also Murad et al, Arch. Biochem. Biophys. 292:234 (1992)).

[8] = in vivo; cited from earlier work
[9] = 1 mM, 72 hr (description table)
[10] = type I procollagen chains isolated by gel electrophoresis, mean ± range of two experiments (description table)

SMILES	suppression of fibroblast proliferation (in words) [1]	% Collagen Synthesized [2]	suppression of lysyl hydroxylase (in words) [3]	Fibroblast Lysyl Hydroxylase Activity ([3]; 1 mM)	Lysyl Hydroxylase Activity ([3]; 1 mM, 72 hr (Table VI))	Lysyl Hydroxylase Activity [3, 9]	Fibroblast Lysyl Hydroxylase Activity ([3]; 5 mM)	effect on prolyl hydroxylase (in words) [4]	prolyl hydroxylase activity (in words) [4]	Prolyl Hydroxylase Activity ([4]; 72 hr (Table VI))	Prolyl Hydroxylase Activity ([4]; 72 hr (description table))	Hyp/Pro ([5]; gel electrophoresis (Table V))	Hyp/Pro [5, 10]	activity at 1000 µM [5]	Hyl/Lys ([6]; gel electrophoresis (Table V))	Hyl/Lys [6, 10]	activity at 1000 µM [6]	10^-6 × No. of Cells/Dish [7]	antihypertensive / hypotensive activity (in words) [8]	Lysyl hydroxylase activity, % of control level ([3]; 1 mM, 72 hr)
Nc1cc(N2CCC(O)CC2)nc(N)[n+]1[O-] [4'-Hydroxyminoxidil]	as active as minoxidil in suppressing fibroblast proliferation	8.2 ± 0.6%	inhibitory potential comparable to that of minoxidil; also recorded: as active as minoxidil in suppressing fibroblast proliferation and lysyl hydroxylase activity	415 cpm^3 H2 O/mg protein	239 cpm ^3 H2 O/mg protein	293 cpm^3 H2 O/mg protein	494 cpm^3 H2 O/mg protein	without affecting prolyl hydroxylase	remained unchanged	33500 cpm ^3 H2 O/mg protein	33500 cpm^3 H2 O/mg protein	1.12 ± 0.07	1.12 ± 0.07	122%	0.09 ± 0.01	0.09 ± 0.01	41%	1.42 10^-6 × No. of Cells/Dish	Neither metabolite exhibits the marked hypotensive activity associated with minoxidil; also recorded: inactive as antihypertensive agents	
Nc1cc(N2CCCC(O)C2)nc(N)[n+]1[O-] (stereo not drawn) [3'-Hydroxyminoxidil]	as active as minoxidil in suppressing fibroblast proliferation	9.0 ± 0.9%	inhibitory potential comparable to that of minoxidil; also recorded: as active as minoxidil in suppressing fibroblast proliferation and lysyl hydroxylase activity	401 cpm^3 H2 O/mg protein	263 cpm ^3 H2 O/mg protein	263 cpm^3 H2 O/mg protein	383 cpm^3 H2 O/mg protein	without affecting prolyl hydroxylase	remained unchanged	30512 cpm ^3 H2 O/mg protein	30512 cpm^3 H2 O/mg protein	0.95 ± 0.02	0.95 ± 0.02	103%	0.07 ± 0.01	0.07 ± 0.01	32%	1.39 10^-6 × No. of Cells/Dish	Neither metabolite exhibits the marked hypotensive activity associated with minoxidil; also recorded: inactive as antihypertensive agents	22%
